{
  "source": "patent US6861440B2",
  "about": "“DPP IV inhibitors” (Hoffmann-La Roche Inc., priority 2001, dated 2005)",
  "data": [
    {"target": "T1, human DPP-IV (Homo sapiens, UniProt P27487)", "T1 construct": "made in house; host or cells: Pichia pastoris", "T1 sequence (P27487 31-766)": "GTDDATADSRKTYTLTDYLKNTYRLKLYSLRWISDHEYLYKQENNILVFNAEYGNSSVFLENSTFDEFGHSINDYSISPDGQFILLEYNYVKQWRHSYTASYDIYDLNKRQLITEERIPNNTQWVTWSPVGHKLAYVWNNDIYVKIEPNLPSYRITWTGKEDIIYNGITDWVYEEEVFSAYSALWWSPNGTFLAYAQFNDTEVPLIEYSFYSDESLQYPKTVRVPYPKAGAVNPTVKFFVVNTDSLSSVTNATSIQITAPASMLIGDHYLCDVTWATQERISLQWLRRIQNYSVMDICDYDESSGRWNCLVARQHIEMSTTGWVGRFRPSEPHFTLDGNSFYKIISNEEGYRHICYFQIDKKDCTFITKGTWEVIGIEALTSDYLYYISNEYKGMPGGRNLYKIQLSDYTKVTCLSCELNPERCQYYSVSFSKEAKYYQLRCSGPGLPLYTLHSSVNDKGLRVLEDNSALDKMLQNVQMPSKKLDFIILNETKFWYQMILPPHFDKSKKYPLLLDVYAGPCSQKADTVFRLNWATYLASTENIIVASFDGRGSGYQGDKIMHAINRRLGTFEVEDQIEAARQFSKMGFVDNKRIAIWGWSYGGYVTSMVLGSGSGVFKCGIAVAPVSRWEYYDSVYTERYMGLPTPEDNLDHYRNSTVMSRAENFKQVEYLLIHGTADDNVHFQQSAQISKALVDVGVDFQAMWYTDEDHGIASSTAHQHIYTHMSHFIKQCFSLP", "assay": "DPP-IV activity assay (fluorogenic or colorimetric substrate), IC50 determination", "type": "biochemical", "details": "natural human DPP-IV from human plasma pool or recombinant human DPP-IV; 37° C., pH 7.8", "procedure": "Activity of DPP-IV inhibitors are tested with natural human DPP-IV derived from a human plasma pool or with recombinat human DPP-IV. Human citrate plasma from different donors is pooled, filterted through a 0.2 micron membrane under sterile conditions and aliquots of 1 ml are shock frozen and stored at −120° C. until used. In the calorimetric DPP-IV assay 5 to 10 μl human plasma and in the fluorometric assay 1.0 μl of human plasma in a total assay volume of 100 μl is used as an enzyme source. […] Human DPP-IV is expressed and purified from the cultur medium using conventional column chromatography including size exclusion and anion and cation chromatography. […] In the calorimetric DPP-IV assay 20 ng rec.-h DPP-IV and in the fluorometric assay 2 ng rec-h DPP-IV in a total assay volume of 100 μl is used as an enzyme source.\nA 20 mM stock solution in 10% DMF/H2O is stored at −20° C. until use.\nA 10 mM stock solution in 10% MeOH/H2O is stored at −20° C. until use.\nFluorescence is detected in a Perkin Elmer Luminescence Spectrometer LS 50B at an excitation wavelength of 400 nm and an emission wavelength of 505 nm continuously every 15 seconds for 10 to 30 minutes. Initial rate constants are calculated by best fit linear regression.\nInitial rate constants are calculated by best fit linear regression.\nDPP-IV activity assays are performed in 96 well plates at 37° C. in a total assay volume of 100 μl. The assay buffer consists of 50 mM Tris/HCl pH 7.8 containing 0.1 mg/ml BSA and 100 mM NaCl. Test compounds are solved in 100% DMSO, diluted to the desired concentration in 10% DMSO/H2O. The final DMSO concentration in the assay is 1% (v/v). […] Compounds are with (10 minutes at 37° C.) and without preincubation with the enzyme. Enzyme reactions are started with substrate application follwed by immediate mixing.\nKinetic parameters of the enzyme reaction are calculated at at least 5 different substrate concentrations and at least 5 different test compound concentrations.", "units": {"IC50": "nM"}, "values": [
      {"smiles": "Cc1c(C)n(C[C@H](C)NCC(=O)N2CCC[C@H]2C#N)c2ccccc12", "note": "[Example 7, (2S)-1-{[(1S)-2-(2,3-Dimethyl-indol-1-yl)-1-methyl-ethylamino]-acetyl}-pyrrolidine-2-carbonitrile]", "IC50": 88},
      {"smiles": "COc1cc2c(C(=O)C(F)(F)F)cn(C[C@H](C)NCC(=O)N3CCC[C@H]3C#N)c2cc1OC", "note": "[Example 23, (2S)-1-{[(1S)-2-(5,6-Dimethoxy-3-trifluoroacetyl-indol-1-yl)-1-methyl-ethylamino]-acetyl}-pyrrolidine-2-carbonitrile]", "IC50": 128},
      {"smiles": "CC(C)(CNc1ccc(-c2cccc(C(F)(F)F)c2)cn1)NCC(=O)N1CCC[C@H]1C#N", "note": "[Example 119, (2S)-1-({1,1-Dimethyl-2-[5-(3-trifluoromethyl-phenyl)-pyridin-2-ylamino]-ethylamino}-acetyl)-pyrrolidine-2-carbonitrile]", "IC50": 7},
      {"smiles": "CC(C)(CNc1cccc(-c2ccccc2)n1)NCC(=O)N1CCC[C@H]1C#N", "note": "[Example 129, (2S)-1-{[1,1-Dimethyl-2-(6-phenyl-pyridin-2-ylamino)-ethylamino]-acetyl}-pyrrolidine-2-carbonitrile]", "IC50": 1},
      {"smiles": "Cc1cccc(-c2nc(CC(C)(C)NCC(=O)N3CCC[C@H]3C#N)c(C)[nH]2)c1", "note": "[Example 188, (2S)-1-{[1,1-Dimethyl-2-(5-methyl-2-m-tolyl-1H-imidazol-4-yl)-ethylamino]-acetyl}-pyrrolidine-2-carbonitrile]", "IC50": 1}
    ]}
  ]
}
